# Assay results published in patent US11957684B2, “Treatment of heavy menstrual bleeding associated with uterine fibroids” (Sumitomo Pharma Switzerland GmbH, priority 2016, dated 2024).
# Like-named read-outs stand apart in the source and are kept apart here.
# Tested on: endometriosis-associated pain
# Assay type: in vivo, human
# Details: 3.75 mg sc/4 wk
# Protocol: Subjects assessed and recorded their own quality of life (QOL) using the EHP-30 once a month during the study visit. As used in the examples, the VAS score was evaluated using a 100 mm scale. For pain intensity, the scale was anchored by “no pain” (score of 0) and “pain as bad as you can imagine” (score of 100). […] The above items were evaluated using a patient diary that was distributed by the sponsor. Subjects filled out the patient diary every day during the treatment period or until early termination. If taking prohibited analgesics, subjects recorded this fact in the patient diary along with the accompanying pain symptoms before use of analgesics. As used in the examples, pain during menstruation and pelvic pain unrelated to menstruation were evaluated using scores on the M-B&B and B&B. The M-B&B scores were recorded by subjects on the patient diary supplied by the sponsor. Subjects filled out the patient diary every day during the treatment period or until early termination. If taking prohibited analgesics, subjects recorded this fact in the patient diary along with the accompanying pain symptoms before use of analgesics. The investigator or subinvestigator assessed each patient's pain through interviews and filled out a B&B once a month. The items that were assessed are shown below. The M-B&B score included: dysmenorrhea (severe, moderate, mild, no pain, or no menstruation); pelvic pain (severe, moderate, mild, or no pain); deep dyspareunia (severe, moderate, mild, no pain, or no intercourse). The B&B score included: dysmenorrhea (severe, moderate, mild, none, or not applicable); dyspareunia (severe, moderate, mild, none, or not applicable); pelvic pain (severe, moderate, mild, or none); pelvic tenderness (severe, moderate, mild, or none); and induration (severe, moderate, mild, or none). As used in the examples, the EHP-30 score was obtained by subjects assessing and recording their own QOL using the EHP-30 questionnaire.
# [1] = end of treatment, listed as leuprorelin
compound,measurement,setting,value
"CCNC(=O)[C@@H]1CCCN1C(=O)[C@H](CCCNC(=N)N)NC(=O)[C@H](CC(C)C)NC(=O)[C@@H](CC(C)C)NC(=O)[C@H](Cc1ccc(O)cc1)NC(=O)[C@H](CO)NC(=O)[C@H](Cc1c[nH]c2ccccc12)NC(=O)[C@H](Cc1c[nH]cn1)NC(=O)[C@@H]1CCC(=O)N1 [leuprolide acetate, reference compound]","change from baseline in mean VAS, dysmenorrhea",Day 1-28,−9.985±15.7027 mm
same,"change from baseline in mean VAS, dyspareunia",Day 1-28,−3.126±17.0520 mm
same,"change from baseline in mean VAS, pelvic pain",Day 1-28,−4.282±7.3628 mm
same,"mean VAS score, dysmenorrhea",Day 1-28,17.133±19.4179 mm
same,"mean VAS score, dyspareunia",Day 1-28,7.288±16.2960 mm
same,"mean VAS score, pelvic pain",Day 1-28,10.899±14.8866 mm
same,"change from baseline in mean VAS, dysmenorrhea",Day 57-84,−27.558±19.9878 mm
same,"change from baseline in mean VAS, dyspareunia",Day 57-84,−6.752±10.5824 mm
same,"change from baseline in mean VAS, pelvic pain",Day 57-84,−10.364±10.4428 mm
same,"mean VAS score, dysmenorrhea",Day 57-84,0.000±0.0000 mm
same,"mean VAS score, dyspareunia",Day 57-84,5.478±10.7612 mm
same,"mean VAS score, pelvic pain",Day 57-84,5.013±12.0454 mm
same,"change from baseline in mean VAS, dysmenorrhea",Day 141-168,−28.373±20.7287 mm
same,"change from baseline in mean VAS, dyspareunia",Day 141-168,−4.953±16.9523 mm
same,"change from baseline in mean VAS, pelvic pain",Day 141-168,−13.804±12.8288 mm
same,"mean VAS score, dysmenorrhea",Day 141-168,0.000±0.0000 mm
same,"mean VAS score, dyspareunia",Day 141-168,5.565±12.5556 mm
same,"mean VAS score, pelvic pain",Day 141-168,2.167±5.1999 mm
same,"change from baseline in EHP-30, Self-image",Week 24,−9.42±15.553
same,"change from baseline in EHP-30, control & powerlessness",Week 24,−24.80±23.839
same,"change from baseline in EHP-30, emotional well-being",Week 24,−12.37±18.332
same,"change from baseline in EHP-30, pain",Week 24,−26.38±20.341
same,"change from baseline in EHP-30, social support",Week 24,−10.46±17.923
same,"change from baseline in mean B&B score, dysmenorrhea",Week 24,−2.1±0.49
same,"change from baseline in mean B&B score, dyspareunia",Week 24,−0.5±0.88
same,"change from baseline in mean B&B score, induration",Week 24,−0.8±0.82
same,"change from baseline in mean B&B score, pelvic pain",Week 24,−1.2±0.72
same,"change from baseline in mean B&B score, pelvic tenderness",Week 24,−1.1±0.78
same,"subjects without pain in B&B score, dysmenorrhea",Week 24,100%
same,"subjects without pain in B&B score, dyspareunia",Week 24,70.6%
same,"subjects without pain in B&B score, induration",Week 24,75.4%
same,"subjects without pain in B&B score, pelvic pain",Week 24,68.9%
same,"subjects without pain in B&B score, pelvic tenderness",Week 24,70.5%
same,"change from baseline in maximum M-B&B score, dysmenorrhea",end of treatment,−1.9±0.69
same,"change from baseline in maximum M-B&B score, dyspareunia",end of treatment,−0.4±0.78
same,"change from baseline in maximum M-B&B score, pelvic pain",end of treatment,−1.3±0.82
same,"change from baseline in maximum VAS, dysmenorrhea",end of treatment,−51.8±27.01 mm
same,"change from baseline in maximum VAS, dyspareunia",end of treatment,−10.3±19.76 mm
same,"change from baseline in maximum VAS, pelvic pain",end of treatment,−46.8±26.29 mm
same,"change from baseline in mean M-B&B score, deep dyspareunia",end of treatment,−0.208±0.5604
same,"change from baseline in mean M-B&B score, dysmenorrhea",end of treatment,−1.160±0.4802
same,"change from baseline in mean M-B&B score, pelvic pain",end of treatment,−0.483±0.4860
same,"change from baseline in mean VAS, dysmenorrhea",end of treatment,−26.944±19.9212 mm
same,"change from baseline in mean VAS, dyspareunia",end of treatment,−4.593±15.0878 mm
same,"change from baseline in mean VAS, pelvic pain",end of treatment,−12.552±12.5609 mm
same,change from baseline in mean score of amount of bleeding (0 to 5),end of treatment,−2.320±0.7281
same,"change in proportion of days without pain (M-B&B), deep dyspareunia",end of treatment,21.76±43.266%
same,"change in proportion of days without pain (M-B&B), dysmenorrhea",end of treatment,80.29±23.327%
same,"change in proportion of days without pain (M-B&B), pelvic pain",end of treatment,33.42±34.007%
same,"change in proportion of days without pain (VAS), dysmenorrhea",end of treatment,82.09±24.051%
same,"change in proportion of days without pain (VAS), dyspareunia",end of treatment,21.76±43.266%
same,"change in proportion of days without pain (VAS), pelvic pain",end of treatment,40.70±33.342%
same,"mean VAS score, dysmenorrhea",end of treatment,0.174±1.1623 mm
same,"mean VAS score, dyspareunia",end of treatment,4.913±10.6249 mm
same,"mean VAS score, pelvic pain",end of treatment,2.629±5.5783 mm
same,subjects who achieved amenorrhea,end of treatment,97.5%
same,"subjects without pain in M-B&B score, dysmenorrhea",end of treatment,97.5%
same,"subjects without pain in M-B&B score, dyspareunia",end of treatment,56.5%
same,"subjects without pain in M-B&B score, pelvic pain",end of treatment,63.8%
same,"subjects without pain in VAS score, dysmenorrhea",end of treatment,97.5%
same,"subjects without pain in VAS score, dyspareunia",end of treatment,56.5%
same,"subjects without pain in VAS score, pelvic pain",end of treatment,56.8%
same,"change from baseline in mean VAS, pelvic pain",[1],−12.552 mm
same,"subjects without pain in VAS score, pelvic pain",[1],57%
